How the values were obtained:
[1] = Test for solubility of alkyl-aryl 1,3-propanedione silicone derivative in silicone-based oils and Squalene at 25° C.; format: physicochemical; conditions: for Solubility, Scwr, 30% / Solubility, Scwr, 50%: Scwr (Squalene); for Solubility, Scwr, 30%: 30% (w/w); for Solubility, Scwr, 50%: 50% (w/w); for Solubility, Silicon KF56, 30%: Silicone KF 56, 30% (w/w); for Solubility, Silicon KF56, 50%: Silicone KF 56, 50% (w/w); for Solubility, Sil. KF96, 30%: Silicone KF96, 30% (w/w); for Solubility, Sil. KF96, 50%: Silicone KF96, 50% (w/w)
Protocol: A circle (O) mark is put to a compound which is completely dissolved under 25° C., and a cross (X) mark is put to a compound which makes the solution cloudy even a little.

[2] = Ultraviolet ray absorption spectrum; format: physicochemical; set-up: ε: unit not given beside the values; conditions: for ε: at λmax; for λmax: ultraviolet ray absorption

| SMILES | Solubility, Scwr, 30% [1] | Solubility, Scwr, 50% [1] | Solubility, Silicon KF56, 30% [1] | Solubility, Silicon KF56, 50% [1] | Solubility, Sil. KF96, 30% [1] | ε [2] | λmax [2] | Solubility, Sil. KF96, 50% [1] |
| --- | --- | --- | --- | --- | --- | --- | --- | --- |
| COc1cc(C(=O)CC(=O)C(C)(C)C)cc(CCC[Si](C)(O[Si](C)(C)C)O[Si](C)(C)C)c1O [Compound 9] | .largecircle. | .largecircle. | .largecircle. | .largecircle. | .largecircle. | 24000 | 342 nm | – |
| COc1cc(C(=O)CC(=O)C(C)(C)C)ccc1OCCC[Si](C)(O[Si](C)(C)C)O[Si](C)(C)C [Compound 2] | .largecircle. | .largecircle. | .largecircle. | .largecircle. | .largecircle. | 23550 | 334 nm | .largecircle. |
| COc1cc(C(=O)CC(=O)C(C)(C)C)ccc1OCCCCC[Si](C)(O[Si](C)(C)C)O[Si](C)(C)C [Compound 8] | .largecircle. | .largecircle. | .largecircle. | .largecircle. | .largecircle. | 23220 | 334 nm | .largecircle. |
| COc1cc(C(=O)CC(=O)C(C)(C)C)ccc1OCCC[Si](C)(C)O[Si](C)(C)C [Compound 1] | .largecircle. | .largecircle. | .largecircle. | .largecircle. | .largecircle. | 24090 | 335 nm | .largecircle. |
| COc1ccc(C(=O)CC(=O)C(C)(C)C)cc1OCCC[Si](C)(O[Si](C)(C)C)O[Si](C)(C)C [Compound 3] | .largecircle. | .largecircle. | .largecircle. | .largecircle. | .largecircle. | – | – | .largecircle. |
| CCCCC(CC)C(=O)CC(=O)c1cc(CCC[Si](C)(O[Si](C)(C)C)O[Si](C)(C)C)c(OC)c(OC)c1 (centres unmarked) [Compound 5] | .largecircle. | .largecircle. | .largecircle. | .largecircle. | .largecircle. | 23500 | 334 nm | .largecircle. |
| COc1cc(C(=O)CC(=O)C(C)(C)C)ccc1OCC(C)C[Si](C)(O[Si](C)(C)C)O[Si](C)(C)C (centres unmarked) [Compound 7] | .largecircle. | .largecircle. | .largecircle. | .largecircle. | .largecircle. | 27350 | 334 nm | .largecircle. |
| CCCCC(CC)C(=O)CC(=O)c1cc(CCC[Si](C)(O[Si](C)(C)C)O[Si](C)(C)C)c(OC)c(OC)c1 (centres unmarked) [Compound 6] | .largecircle. | .largecircle. | .largecircle. | .largecircle. | .largecircle. | – | – | .largecircle. |

Reference: patent US5225583A, “Alkyl-aryl 1,3-propanedione silicone derivative and an external preparation for skin with the derivative compounded therein” (Shiseido Co., Ltd., priority 1991, dated 1993)
